# Experimental data: US9951041B2, “Crystalline C21H22Cl2N4O2 malonate” (BIOMED VALLEY DISCOVERIES, INC., priority 2015, dated 2018)
# Tests used:
# [1] = Pharmacokinetic evaluation in male beagles, two-way cross-over, oral gavage; assay type: in vivo
# Source text: […]. […] […]
# [2] = physchem; settings: for Conc (solubility): pH 1.6 FaSSGF buffer, ambient temperature, shaken
# Source text: Samples of 4-(5-Chloro-2-isopropylaminopyridin-4-yl)-1H-pyrrole-2-carboxylic acid [1-(3-chlorophenyl)-2-hydroxyethyl]amide Form C and 4-(5-Chloro-2-isopropylaminopyridin-4-yl)-1H-pyrrole-2-carboxylic acid [1-(3-chlorophenyl)-2-hydroxyethyl]amide malonate Form A were each shaken at ambient temperature in fasting state simulated gastric fluid (FaSSGF) pH 1.6 for 30. Concentration of 4-(5-Chloro-2-isopropylaminopyridin-4-yl)-1H-pyrrole-2-carboxylic acid [1-(3-chlorophenyl)-2-hydroxyethyl]amide was measured at 5, 15 and 30 minutes.
# [3] = Aqueous dissolution/solubility in fasting state simulated intestinal fluid (FaSSIF) pH 6.5 after 30 min in FaSSGF; assay type: physicochemical; settings: pH 6.5 FaSSIF buffer, after 30 min FaSSGF
# Method: After 30 minutes, the samples were removed from FaSSGF, placed in fasting state simulated intestinal fluid (FaSSIF) pH 6.5, with shaking, for an additional 5 hours.
# [4] = pH 1.6, fassgf or other biorelevant, thermodynamic from solid
smiles,measurement,setting,value
"CC(C)Nc1cc(-c2c[nH]c(C(=O)N[C@H](CO)c3cccc(Cl)c3)c2)c(Cl)cn1 [Malonate Form A, 4-(5-Chloro-2-isopropylaminopyridin-4-yl)-1H-pyrrole-2-carboxylic acid [1-(3-chlorophenyl)-2-hydroxyethyl]amide malonate Form A]",coefficient of variation (CV) of average area under the curve (AUC),"[1]; male, beagle, dog, in vivo, po, 5 mg/kg",50%
same,solubility at 5 min,[2]; [4],381 µg/mL
same,solubility at 15 min,[2]; [4],385 µg/mL
same,solubility at 30 min,[2]; [4],369 µg/mL
same,solubility at 10 min,"[3]; fasting state simulated intestinal fluid (FaSSIF), thermodynamic from solid, 10 min, read-out: Conc (solubility)",63.3 µg/mL
same,solubility at 30 min,"[3]; fasting state simulated intestinal fluid (FaSSIF), thermodynamic from solid, 30 min, read-out: Conc (solubility)",110 µg/mL
same,solubility at 60 min,"[3]; fasting state simulated intestinal fluid (FaSSIF), thermodynamic from solid, 60 min, read-out: Conc (solubility)",114 µg/mL
same,solubility at 90 min,"[3]; fasting state simulated intestinal fluid (FaSSIF), thermodynamic from solid, 90 min, read-out: Conc (solubility)",115 µg/mL
same,solubility at 120 min,"[3]; fasting state simulated intestinal fluid (FaSSIF), thermodynamic from solid, 120 min, read-out: Conc (solubility)",110 µg/mL
same,solubility at 180 min,"[3]; fasting state simulated intestinal fluid (FaSSIF), thermodynamic from solid, 180 min, read-out: Conc (solubility)",110 µg/mL
same,solubility at 270 min,"[3]; fasting state simulated intestinal fluid (FaSSIF), thermodynamic from solid, 270 min, read-out: Conc (solubility)",116 µg/mL
same,solubility at 300 min,"[3]; fasting state simulated intestinal fluid (FaSSIF), thermodynamic from solid, 300 min, read-out: Conc (solubility)",115 µg/mL
"CC(C)Nc1cc(-c2c[nH]c(C(=O)NC(CO)c3cccc(Cl)c3)c2)c(Cl)cn1 (stereo not shown) [Form C, 4-(5-Chloro-2-isopropylaminopyridin-4-yl)-1H-pyrrole-2-carboxylic acid [1-(3-chlorophenyl)-2-hydroxyethyl]amide Form C]",coefficient of variation (CV) of average area under the curve (AUC),"[1]; male beagles, single dose 5 mg/kg by oral gavage, plasma 0-24 hours",39%
same,Conc (solubility),[2]; 15 min,101.35 µg/mL
same,Conc (solubility),[2]; 30 min,136.97 µg/mL
same,Conc (solubility),[3]; 30 min,169.89 µg/mL
same,Conc (solubility),[3]; 120 min,332.68 µg/mL
same,Conc (solubility),[3]; 270 min,128.38 µg/mL
same,Conc (solubility),[3]; 300 min,154.70 µg/mL
